Experimental findings from article PMC9501899 (Journal of the American Chemical Society, 2022) are described below.

For the experiment, the system named is LRRK2. The experiment is described as follows: Western blot screening of PROTACs in WT and G2019S LRRK2 MEFs. The experiment is classed as cell-based, mouse. The protocol: These PROTACs were then biologically evaluated in mouse embryonic fibroblasts (MEFs) by Western blotting. Briefly, MEFs were treated with compounds at 33 nM and 1 μM for 4 h (Figure 2) and 24 h (Figure S2) separately, and the intracellular level of LRRK2, phosphorylated LRRK2 at Ser935, and phosphorylated Rab10 (pRab10) at Thr73 was determined. Rab10[5],[49] is one of the bona fide substrates of LRRK2, whose phosphorylation status is directly affected by the LRRK2 kinase activity and protein level. Phosphorylation of LRRK2 at Ser935 is a well-studied biomarker site used to assess the efficacy of type 1 LRRK2 inhibitors.[30]
Primary MEFs were generated as described in a previous study.[80] Briefly, the uterine horn was collected from adult female mice at day E12.5 and transferred to a 10 cm tissue culture dish containing cold PBS. Two forceps were used to tear the yolk sacs to isolate each embryo. Forceps were cleaned thoroughly with 70% ethanol between each embryo isolation. The embryos were culled, and a tissue piece was collected in a polymerase chain reaction (PCR) tube for genotyping. The red tissue of the embryo was removed, and the remainder was minced with a scalpel blade and incubated with a 7.5 mL trypsin–ethylenediaminetetraacetic acid (EDTA) solution for 10 min in a 37 °C, 5% CO2 tissue culture incubator. The dish was removed from the incubator and checked under a light microscope for single cells. Complete media (7.5 mL) was added to the trypsinized cells, and the cell suspension was transferred to a 15 mL Falcon tube and centrifuged at 1200 rpm for 5 min at room temperature. The trypsin was aspirated, the cell pellet was resuspended in a 5 mL fresh complete media, and the cell suspension was plated in a 60 mm tissue culture dish and incubated in a 37 °C, 5% CO2 tissue culture incubator. The MEFs at this stage were considered as passage 0 and were passaged and expanded for experimental use once the genotype was confirmed by allelic sequencing and immunoblotting. MEFs were cultured in Dulbecco’s modified Eagle’s medium (DMEM) containing 10% (v/v) fetal bovine serum (FBS), 2 mM L-glutamine, 100 U/mL penicillin, and 100 μg/mL streptomycin supplemented with 1× nonessential amino acids and 1 mM sodium pyruvate.
Culturing and passaging of adherent cell lines were carried out using an aseptic technique in CL1 or CL2 (for PBMC isolation) biological safety cabinets. All cells were incubated in a 37 °C incubator with 5% CO2. Cell lines were regularly tested for mycoplasma contamination. For Western blot assay, the cells were seeded in six-well plates.

As to `CNc1nc(Nc2ccc(C(=O)N3CCN(CCOCCOCCSC(C)(C)[C@H](NC(=O)C4(F)CC4)C(=O)N4C[C@H](O)C[C@H]4C(=O)NCc4ccc(-c5scnc5C)cc4)CC3)cc2OC)ncc1Cl` [SD75], the “degradation of LRRK2” value (0.033 µM) is reported as below 40%. Further, under “33 nM/4 h, WT and G2019S LRRK2 MEFs”, the “degradation of LRRK2 (in words)” value was “little to no degradation”.
